# Columns and labels:
# [1] = biological target: T1, Tyrosine-protein phosphatase non-receptor type 11 (Homo sapiens, UniProt Q06124); assay: Inhibition of full length wild type recombinant human IRS-1 peptide activated SHP2 (1 to 525 residues) using DIPMUP as substrate preincubated for 30 mins followed by substrate addition and measured after 30 mins by fluorescence based analysis
# T1 sequence (Q06124 whole entry): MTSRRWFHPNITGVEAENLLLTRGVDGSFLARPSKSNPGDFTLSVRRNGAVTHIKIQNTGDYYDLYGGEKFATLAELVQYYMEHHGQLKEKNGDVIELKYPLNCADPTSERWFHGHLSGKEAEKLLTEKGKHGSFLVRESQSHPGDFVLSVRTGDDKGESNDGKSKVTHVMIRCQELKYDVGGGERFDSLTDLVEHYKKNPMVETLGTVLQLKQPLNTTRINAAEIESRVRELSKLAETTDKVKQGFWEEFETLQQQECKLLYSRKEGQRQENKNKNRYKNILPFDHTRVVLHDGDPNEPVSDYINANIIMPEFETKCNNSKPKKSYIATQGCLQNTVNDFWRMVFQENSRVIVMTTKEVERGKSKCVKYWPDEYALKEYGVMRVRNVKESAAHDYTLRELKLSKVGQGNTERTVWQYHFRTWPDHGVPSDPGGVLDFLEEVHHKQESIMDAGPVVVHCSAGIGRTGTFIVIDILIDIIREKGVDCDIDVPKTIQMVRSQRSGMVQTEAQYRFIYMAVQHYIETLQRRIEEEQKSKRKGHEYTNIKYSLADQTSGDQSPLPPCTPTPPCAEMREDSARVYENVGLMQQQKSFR
# [2] = system: NCI-H358; assay: Antiproliferative activity against human NCI-H358 cells assessed as inhibition of cell growth measured after 72 hrs by CCK8 method; type: functional, cell-based; settings: NCI-H358, 72 h
# [3] = system: MV4-11; assay: Antiproliferative activity against human MV4-11 cells assessed as inhibition of cell growth measured after 72 hrs by CCK8 method; type: functional, cell-based; settings: MV4-11, 72 h
# [4] = biological target: T1, Tyrosine-protein phosphatase non-receptor type 11; assay: Inhibition of recombinant human SHP2 PTPase activity (219 to 525 residues) using DIPMUP as substrate preincubated for 30 mins followed by substrate addition and measured after 30 mins by fluorescence based analysis
# [5] = system: MDA-MB-468; assay: Antiproliferative activity against human MDA-MB-468 cells assessed as inhibition of cell growth measured after 72 hrs by CCK8 method; type: functional, cell-based; settings: MDA-MB-468, 72 h
# [6] = biological target: Tyrosine-protein phosphatase non-receptor type 6 (Homo sapiens, UniProt P29350); assay: Inhibition of full length recombinant human SHP1 (1 to 570 residues) using DIPMUP as substrate preincubated for 30 mins followed by substrate addition and measured after 30 mins by fluorescence based analysis
# Sequence of Tyrosine-protein phosphatase non-receptor type 6 (P29350 whole entry, the tested form may be a part): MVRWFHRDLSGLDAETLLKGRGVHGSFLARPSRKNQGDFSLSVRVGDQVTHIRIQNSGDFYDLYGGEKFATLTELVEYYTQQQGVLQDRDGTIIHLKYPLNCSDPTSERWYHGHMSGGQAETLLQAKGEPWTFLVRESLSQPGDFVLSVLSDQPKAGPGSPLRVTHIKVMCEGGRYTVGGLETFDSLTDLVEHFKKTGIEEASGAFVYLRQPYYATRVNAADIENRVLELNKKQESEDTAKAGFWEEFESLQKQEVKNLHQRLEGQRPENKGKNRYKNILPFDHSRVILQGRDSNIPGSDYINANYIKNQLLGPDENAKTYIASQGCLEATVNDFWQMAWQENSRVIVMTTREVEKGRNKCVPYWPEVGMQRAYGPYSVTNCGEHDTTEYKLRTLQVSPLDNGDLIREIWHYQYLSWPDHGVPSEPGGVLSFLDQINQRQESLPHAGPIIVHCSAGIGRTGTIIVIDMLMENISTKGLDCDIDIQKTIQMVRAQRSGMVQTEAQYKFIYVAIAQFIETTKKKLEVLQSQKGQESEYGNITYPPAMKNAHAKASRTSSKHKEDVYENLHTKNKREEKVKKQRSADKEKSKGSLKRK
# [7] = system: A549; assay: Antiproliferative activity against human A549 cells assessed as inhibition of cell growth measured after 72 hrs by CCK8 method; type: functional, cell-based; settings: A549, 72 h
# [8] = system: MV4-11; assay: Induction of apoptosis in human MV4-11 cells assessed as late apoptotic cells at 1.25 uM measured after 4 hrs by Annexin V-FITC/7-AAD staining based flow cytometric analysis (reference value: 4.03%); type: functional
# [9] = system: MV4-11; assay: Induction of apoptosis in human MV4-11 cells assessed as late apoptotic cells at 5 uM measured after 4 hrs by Annexin V-FITC/7-AAD staining based flow cytometric analysis (reference value: 4.03%); type: functional
# [10] = system: MV4-11; assay: Induction of apoptosis in human MV4-11 cells assessed as early apoptotic cells at 5 uM measured after 4 hrs by Annexin V-FITC/7-AAD staining based flow cytometric analysis (reference value: 4.28%); type: functional
# [11] = system: MV4-11; assay: Induction of apoptosis in human MV4-11 cells assessed as early apoptotic cells at 5 uM measured after 4 hrs by Annexin V-FITC/7-AAD staining based flow cytometric analysis (reference value: 5.97%); type: functional
# [12] = Inhibition of full length recombinant human SHP2 E76A mutant (1 to 525 residues) using DIPMUP as substrate preincubated for 30 mins followed by substrate addition and measured after 30 mins by fluorescence based analysis
# [13] = system: MV4-11; assay: Induction of apoptosis in human MV4-11 cells assessed as necrotic cells at 5 uM measured after 2 hrs by Annexin V-FITC/7-AAD staining based flow cytometric analysis (reference value: 0.92%); type: functional
# [14] = system: MV4-11; assay: Induction of apoptosis in human MV4-11 cells assessed as early apoptotic cells at 2.5 uM measured after 4 hrs by Annexin V-FITC/7-AAD staining based flow cytometric analysis (reference value: 5.97%); type: functional
# [15] = system: MV4-11; assay: Induction of apoptosis in human MV4-11 cells assessed as viable cells at 5 uM measured after 4 hrs by Annexin V-FITC/7-AAD staining based flow cytometric analysis (reference value: 89.1%); type: functional
# [16] = system: MV4-11; assay: Induction of apoptosis in human MV4-11 cells assessed as late apoptotic cells at 2.5 uM measured after 4 hrs by Annexin V-FITC/7-AAD staining based flow cytometric analysis (reference value: 4.03%); type: functional
# [17] = system: MV4-11; assay: Induction of apoptosis in human MV4-11 cells assessed as late apoptotic cells at 5 uM measured after 1 hrs by Annexin V-FITC/7-AAD staining based flow cytometric analysis (reference value: 4.21%); type: functional
# [18] = system: MV4-11; assay: Induction of apoptosis in human MV4-11 cells assessed as early apoptotic cells at 1.25 uM measured after 4 hrs by Annexin V-FITC/7-AAD staining based flow cytometric analysis (reference value: 5.97%); type: functional
# [19] = system: MV4-11; assay: Induction of apoptosis in human MV4-11 cells assessed as late apoptotic cells at 5 uM measured after 4 hrs by Annexin V-FITC/7-AAD staining based flow cytometric analysis (Rvb =4.21%); type: functional
# [20] = system: MV4-11; assay: Induction of apoptosis in human MV4-11 cells assessed as necrotic cells at 5 uM measured after 4 hrs by Annexin V-FITC/7-AAD staining based flow cytometric analysis (reference value: 0.86%); type: functional
# [21] = system: MV4-11; assay: Induction of apoptosis in human MV4-11 cells assessed as viable cells at 5 uM measured after 2 hrs by Annexin V-FITC/7-AAD staining based flow cytometric analysis (reference value: 90.1%); type: functional
# [22] = system: MV4-11; assay: Induction of apoptosis in human MV4-11 cells assessed as viable cells at 2.5 uM measured after 4 hrs by Annexin V-FITC/7-AAD staining based flow cytometric analysis (reference value: 89.1%); type: functional
# [23] = system: MV4-11; assay: Induction of apoptosis in human MV4-11 cells assessed as necrotic cells at 2.5 uM measured after 4 hrs by Annexin V-FITC/7-AAD staining based flow cytometric analysis (reference value: 0.86%); type: functional
# [24] = system: MV4-11; assay: Induction of apoptosis in human MV4-11 cells assessed as viable cells at 1.25 uM measured after 4 hrs by Annexin V-FITC/7-AAD staining based flow cytometric analysis (reference value: 89.1%); type: functional
# [25] = system: MV4-11; assay: Induction of apoptosis in human MV4-11 cells assessed as necrotic cells at 5 uM measured after 1 hrs by Annexin V-FITC/7-AAD staining based flow cytometric analysis (reference value: 0.92%); type: functional
# [26] = system: MV4-11; assay: Induction of apoptosis in human MV4-11 cells assessed as early apoptotic cells at 5 uM measured after 1 hrs by Annexin V-FITC/7-AAD staining based flow cytometric analysis (reference value: 4.28%); type: functional
# [27] = system: MV4-11; assay: Induction of apoptosis in human MV4-11 cells assessed as viable cells at 5 uM measured after 4 hrs by Annexin V-FITC/7-AAD staining based flow cytometric analysis (reference value: 90.1%); type: functional
# [28] = system: MV4-11; assay: Induction of apoptosis in human MV4-11 cells assessed as necrotic cells at 1.25 uM measured after 4 hrs by Annexin V-FITC/7-AAD staining based flow cytometric analysis (reference value: 0.86%); type: functional
# [29] = system: MV4-11; assay: Induction of apoptosis in human MV4-11 cells assessed as viable cells at 5 uM measured after 1 hrs by Annexin V-FITC/7-AAD staining based flow cytometric analysis (reference value: 90.1%); type: functional
# [30] = system: MV4-11; assay: Induction of apoptosis in human MV4-11 cells assessed as early apoptotic cells at 5 uM measured after 2 hrs by Annexin V-FITC/7-AAD staining based flow cytometric analysis (reference value: 4.28%); type: functional
# [31] = system: MV4-11; assay: Induction of apoptosis in human MV4-11 cells assessed as late apoptotic cells at 5 uM measured after 2 hrs by Annexin V-FITC/7-AAD staining based flow cytometric analysis (reference value: 4.21%); type: functional
# [32] = system: MV4-11; assay: Induction of apoptosis in human MV4-11 cells assessed as necrotic cells at 5 uM measured after 4 hrs by Annexin V-FITC/7-AAD staining based flow cytometric analysis (reference value: 0.92%); type: functional
# [33] = biological target: T1, Tyrosine-protein phosphatase non-receptor type 11; assay: Inhibition of full length wild type recombinant human SHP2 (1 to 525 residues) using DIPMUP as substrate preincubated for 30 mins followed by substrate addition and measured after 30 mins by fluorescence based analysis
# [34] = system: BEAS-2B; assay: Antiproliferative against human BEAS-2B cells assessed as inhibition of cell growth measured after 72 hrs by CCK8 method; type: toxicity, cell-based
structure (smiles),measurement,setting,value
CC1(N)CCN(c2nnc(Sc3ccccc3Cl)s2)CC1,IC50,[1],3.29 µM
CC1(N)CCN(c2nnc(Sc3ccccc3F)s2)CC1,IC50,[1],6.99 µM
CC1(N)CCN(c2nnc(-c3cccc4ccccc34)s2)CC1,IC50,[2],32.9 µM
same,IC50,[3],3.32 µM
same,IC50,[4],> 50 µM
same,IC50,[5],5.42 µM
same,IC50,[1],4.35 µM
same,IC50,[6],> 50 µM
same,IC50,[7],19 µM
NCC1CCN(c2nnc(Sc3cccc(Cl)c3Cl)s2)CC1,IC50,[1],3.82 µM
CC1(N)CCN(c2nnc(Sc3ccc(Cl)c(Cl)c3)s2)CC1,IC50,[1],4.42 µM
CC1(N)CCN(c2cnc(-c3cccc(Cl)c3Cl)c(N)n2)CC1,Activity,[8],4.24%
same,Activity,[9],4.89%
same,Activity,[10],6.98%
same,Activity,[11],5%
same,IC50,[12],1.43 µM
same,Activity,[13],0.95%
same,Activity,[14],5.95%
same,Activity,[15],89.3%
same,Activity,[16],5.06%
same,Activity,[17],4.32%
same,IC50,[2],> 50 µM
same,Activity,[18],4.94%
same,Activity,[19],4.58%
same,IC50,[3],2.78 µM
same,Activity,[20],0.85%
same,Activity,[21],90%
same,Activity,[22],88.2%
same,Activity,[23],0.79%
same,IC50,[5],31.8 µM
same,Activity,[24],88.1%
same,IC50,[6],> 50 µM
same,Activity,[25],1.05%
same,IC50,[7],> 50 µM
same,Activity,[26],4.27%
same,Activity,[27],87.7%
same,Activity,[28],0.66%
same,Activity,[29],90.4%
same,Activity,[30],4.73%
same,Activity,[31],4.35%
same,Activity,[32],0.77%
CC1(CN)CCN(c2nnc(Sc3cccc(Cl)c3Cl)s2)CC1,IC50,[1],1.12 µM
COc1ccc2cc(-c3nnc(N4CCC(C)(N)CC4)s3)ccc2c1,IC50,[1],4.95 µM
NC1CCN(c2nnc(Sc3cccc(Cl)c3Cl)s2)CC1,IC50,[1],5.53 µM
CC1(N)CCN(c2nnc(Sc3ccc(Cl)cc3Cl)s2)CC1,IC50,[1],5.43 µM
CC1(N)CCN(c2nnc(Sc3cccc4cccnc34)s2)CC1,IC50,[1],4.51 µM
CC1(N)CCN(c2nnc(Sc3cccc(Cl)c3Cl)s2)CC1,IC50,[33],3.69 µM
same,IC50,[2],8.64 µM
same,IC50,[3],2.74 µM
same,Activity,[34],Toxic
same,IC50,[4],> 50 µM
same,IC50,[5],2.87 µM
same,IC50,[1],0.97 µM
same,IC50,[6],> 50 µM
same,IC50,[7],7.21 µM
CC1(N)CCN(c2nnc(-c3cccc(Cl)c3Cl)s2)CC1,IC50,[1],5.89 µM
CC1(N)CCN(c2nnc(-c3ccc4ccccc4c3)s2)CC1,IC50,[1],4.35 µM
CC1(N)CCN(c2nnc(Sc3ccc4ccccc4c3)s2)CC1,IC50,[33],1.86 µM
same,IC50,[2],13.9 µM
same,IC50,[3],3.02 µM
same,Activity,[34],Toxic
same,IC50,[4],> 50 µM
same,IC50,[5],3.64 µM
same,IC50,[1],0.72 µM
same,IC50,[6],> 50 µM
same,IC50,[7],13.8 µM
